Where “and” joins values, the source holds several entries; their conditions need not be identical. Equal values may be shown once.

Common to all, as to type: in vivo
In experiment [1] the test system is Commelina benghalensis (COMBE). Nature of the experiment: Adjuvant efficacy with mesotrione, glasshouse spray test. The following applies: mesotrione SC, mean over 30 and 60 g/ha and 3 replicates; adjuvant 0.2% v/v (none in No Adjuvant rows); % leaf area killed, 21 days after application; Tests 2 and 4.
The subject of experiment [2] is Brachiaria plantaginea (BRAPL). The description is as above. Particulars: mesotrione SC, mean over 30 and 60 g/ha and 3 replicates; adjuvant 0.2% v/v (none in No Adjuvant rows); % leaf area killed, 21 days after application; Test 4.
In experiment [3] the test system is weed species BRAPL, COMBE, DIGSA, POLCO. Description: Adjuvant efficacy with mesotrione, glasshouse spray test, average over all species (BRAPL set). Particulars: mesotrione SC, mean over 30 and 60 g/ha, adjuvant 0.2% v/v (none in No Adjuvant rows), 21 days, Test 4, average of BRAPL. As for the experimental part:
The efficacy of adjuvants 1-12 as an adjuvant for the herbicide mesotrione was tested in a glasshouse against four weed species sown into standard soil in pots and cultivated under controlled conditions in a glasshouse (at 24/18° C. day/night; 16 hours light; 65% humidity). Mesotrione was added to the spray tank as a standard SC (suspension concentrate) formulation.
The spray tests were also carried out using mesotrione in conjunction with adjuvants 1-12. The adjuvants were added to the spray solution at a rate of 0.2% v/v unless otherwise stated. All spray solutions also contained 10% w/w of iso-Propanol. The weed species and their BBCH growth stage at spraying were Brachiaria platyphylla (BRAPP; growth stage 13-14) or Brachiaria plantaginea (BRAPL; growth stage 13-14), Commelina benghalensis (COMBE; growth stage 13), Digitaria sanguinalis (DIGSA; growth stage 14), and Polygonum convolvulus (POLCO; growth stage 13-14). Each spray test was replicated three times.
The test plants were then grown in a glasshouse under controlled conditions (at 24/18° C. day/night; 16 hours light; 65% humidity) and watered twice a day. The efficacy of the herbicide was assessed visually and expressed as a percentage of the leaf area killed. Samples were assessed at a time period of 21 days following application. […]

Consider `CCCCCCCCCCCCOc1cc(OCCOCCOCCOCCOCCOCCOCCOC)ncn1` [Adjuvant 6], for which the “Mean % Herbicidal Activity COMBE” value in experiment [1] was determined as 83%.
For the compound `CCCCCCCCCCCCCCCCOc1cc(OCCOCCOCCOCCOCCOCCOCCOCCOCCOCCOC)ncn1` [Adjuvant 8], in experiment [2], the “Mean % Herbicidal Activity BRAPL” value is on record as 33%. The “Mean % Herbicidal Activity COMBE” value in experiment [1] was 85% and 79%. Also, in experiment [3], the “Mean % Herbicidal Activity Average over all Species” value stood at 72%.

The record behind these values is patent publication US11439148B2, “Pyrimidine derivatives” (SYNGENTA PARTICIPATIONS AG, priority 2017, dated 2022).
